Measured values: US20240190888A1, “SPIRO-CONTAINING DERIVATIVE, AND PREPARATION METHOD THEREFOR AND USE THEREOF” (priority 2021, published 2024)

How the values were obtained:
TAAR1 receptor = biological target: T1, TAAR1 receptor (Homo sapiens, UniProt Q96RJ0); experiment: TAAR1 receptor cAMP agonist test (HEK293 cell line stably expressing TAAR1 receptor); assay type: cell-based; conditions: for EC50: cAMP agonist assay, HEK293 cells stably expressing TAAR1; for TAAR1 Max Act %: maximal activation rate relative to PEA positive control
T1 construct: expressed in transfected cells
T1 sequence (Q96RJ0 1-339): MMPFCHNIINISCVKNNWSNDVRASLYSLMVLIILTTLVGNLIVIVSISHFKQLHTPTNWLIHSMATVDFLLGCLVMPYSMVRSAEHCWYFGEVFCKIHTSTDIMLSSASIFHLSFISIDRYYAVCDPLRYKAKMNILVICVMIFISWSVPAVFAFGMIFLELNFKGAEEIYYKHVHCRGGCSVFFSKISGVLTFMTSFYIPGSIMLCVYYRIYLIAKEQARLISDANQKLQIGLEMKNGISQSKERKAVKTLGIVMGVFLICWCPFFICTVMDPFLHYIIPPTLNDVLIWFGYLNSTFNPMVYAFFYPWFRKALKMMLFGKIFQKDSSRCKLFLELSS
Description: 1.1 Experimental Materials:
The cAMP detection lit was purchased from Cisbio; the […] cell line stably expressing TAAR1 receptor was constructed by Shanghai Singing Biotechnology Co., Ltd.; IBMX was purchased from Sigma; Phenethylamine (PEA); ProxiPlate-384 well plate was purchased from PerkinElmer. HBSS was purchased from Thermo Fisher Scientific Company.
(§1) (1) Preparation of experimental buffer: 5×stimulation buffer was diluted to 1× with ddH2O, adding IBMX with a final concentration of 0.5 mM, mixing well for later use.
(2) The frozen cells were thawed quickly in a 37° C. water bath, the cell suspension was washed with HBSS buffer, centrifuging at 200×g to remove the frozen storage solution, the pellet was resuspended with an appropriate amount of experimental buffer, taking 20 μL for counting with a cell counter, and diluting to 1.5×10^6 cells/mL.
(3) 5 μL of cell suspension (1.5×10^4 cells per well) was added to the ProxiPlate-384 well plate.
(4) The compound to be tested was diluted in the experimental buffer by gradient, and 5 μL was transferred to the reaction plate using Bravo, 5 μL experimental buffer was put in each negative control well, and 5 μL PEA (final concentration 10^−2M) was put in each positive control well.
(5) Incubating at 37° C. for 1 hour.
(6) 10 ELL of detection reagent was added to the reaction plate, incubating at room temperature for 1 hour in dark.
(§2) Activation rate (activity %)=(negative control ratio-compound ratio)/(negative control ratio-positive control ratio)×100%
The EC50 values of the compounds were calculated using the four-parameter fitting model log(agonist)vs.response—Variable slope (four parameters) in GraphPad Prism.

[1] = tested on: high spontaneous activity induced by PCP; experiment: Inhibition of high spontaneous activity induced by PCP in mice; assay type: in vivo; conditions: male C57Bl/6J mice, compound p.o. 30 min before PCP 5 mg/kg i.p.
Text: Compounds to be tested: compounds of the examples of the present application, self-made.
Phencyclidine hydrochloride (PCP): purchased from Shanghai Yuansi Standard Science Technology Co., Ltd., specification: 5 g.
(§3) Experimental animals: 18-22 g male C57Bl/6J mice, purchased from Shanghai Slack Experimental Animal Co., Ltd.
That is, animals were transferred from the feeding room to the laboratory, and moved freely in the cage.
The animals were randomly divided into blank group, model group, and administration group according to body weight, 9 mice/group, and the detailed administration information is shown in the following table:
T0 min intraperitoneal injection of modeling drug: 30 minutes after compound administration, the mice were taken out, and administered with PCP (5 mg/kg) by intraperitoneal injection. The blank control group was injected with pure water.
(§4) The activities of these animals (movement distance in the test box) were automatically recorded by the camera, and analyzed with ANY MAZE software, and the ED50 values were calculated.

[2] = tested on: high spontaneous activity induced by MK-801; experiment: Inhibition of high spontaneous activity induced by MK-801 in mice; assay type: in vivo; conditions: male C57Bl/6J mice, compound p.o. 30 min before MK-801 0.3 mg/kg i.p.
Description: 3.1 Experimental Materials:
Compounds to be tested: compounds in the examples of the present application, self-made.
as §3
3.2.1 Grouping of animals: before the start of the experiment, animals were randomly grouped according to body weight. 3.2.2 Animal adaptation: before the experiment, the mice were first adapted to the experimental environment for at least 1 hour. That is, the animals were transferred from the breeding room to the laboratory and moved freely in the cage.
Drug preparation: taking the compound to be tested, adding pure water and performing ultrasonication.
The animals were randomly divided into blank group, model group, and administration group according to body weight, 9 mice % group, and the detailed administration information is shown in the following table:
T-30 min oral administration of compound: compound to be tested or solvent (pure water) was administered orally by gavage, and put into test box (test box size length*width*height=27*27*40 cm) immediately after administration, recording the spontaneous activity of the mice within 30 minutes.
The blank control group was injected with normal saline.
3.2.4 Data Recording and Analysis.
as §4

5-HT1A receptor = biological target: T2, 5-HT1A receptor (Homo sapiens, UniProt P08908); experiment: 5-HT1A receptor cAMP agonist test (HEK293 cell line stably expressing 5-HT1A receptor); assay type: cell-based; conditions: for EC50: cAMP agonist assay with forskolin, HEK293 cells stably expressing 5-HT1A; for 5-HT1A Max Act %: maximal activation rate relative to Serotonin positive control
T2 construct: expressed in transfected cells
T2 sequence (P08908 1-422): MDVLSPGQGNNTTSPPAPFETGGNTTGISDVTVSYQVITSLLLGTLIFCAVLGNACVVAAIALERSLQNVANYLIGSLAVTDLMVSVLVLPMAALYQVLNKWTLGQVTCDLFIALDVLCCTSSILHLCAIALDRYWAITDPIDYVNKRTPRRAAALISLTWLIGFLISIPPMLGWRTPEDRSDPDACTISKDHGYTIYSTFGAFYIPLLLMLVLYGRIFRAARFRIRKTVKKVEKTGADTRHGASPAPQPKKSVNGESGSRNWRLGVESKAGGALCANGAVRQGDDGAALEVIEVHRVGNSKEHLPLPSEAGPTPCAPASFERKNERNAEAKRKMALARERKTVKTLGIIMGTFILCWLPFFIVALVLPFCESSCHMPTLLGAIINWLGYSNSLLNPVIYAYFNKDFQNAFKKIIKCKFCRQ
Description: 2.1 Experimental Materials:
The cAMP detection kit was purchased from Cisbio; the HEK293 cell line stably expressing 5-HT1A receptor was constructed by Shanghai Shujing Biotechnology Co., Ltd.; Serotonin, Forskolin and IBMX were purchased from Sigma; ProxiPlate-384-well plates was purchased from PerkinElmer; HBSS was purchased from Thermo Fisher Scientific.
as §1
(2) The cultured cells were digested with trypsin, and the cell suspension was washed with HBSS buffer after the digestion was terminated, centrifuging to remove the culture medium at 200×g; the precipitate was resuspended with an appropriate amount of experimental buffer, taking 20 μL for counting with a cell counter, and diluting to 0.4×10^6 cells/mL.
(3) 5 μL cell suspension (2×10^3 cells per well) was added to ProxiPlate-384 well plate.
(4) The compound to be tested was diluted in the experimental buffer by gradient, and 5 μL was transferred to the reaction plate using Bravo, 5 μL experimental buffer was put in each negative control well, and 5 μL Serotonin (final concentration 10^−6 M) was put in each positive control well.
(5) Incubating at room temperature for 15 minutes.
(6) Forskolin (final concentration 1.5×10^−7M) was added to the reaction plate using TecanD300e picoliter micro-dosing system.
(7) Incubating at room temperature for 45 minutes.
(8) 10 μL detection reagent was added to the reaction plate, incubating at room temperature for 1 hour in dark.
as §2
The EC50 values of the compounds were calculated using the four-parameter fitting model log(agouist)vs. response—Variable slope (four parameters) in Graph Pad Prism.

Structure (SMILES) | EC50 (TAAR1 receptor) | TAAR1 Max Act % (TAAR1 receptor) | MED (minimum effective dose) [1] | ED50 ([2]; Mus musculus, movement distance over 150 min, read-out: ED50 (half effective dose)) | MED (minimum effective dose) [2] | EC50 (5-HT1A receptor) | 5-HT1A Max Act % (5-HT1A receptor)
CNC[C@@H]1OCC2(CC2)c2ccsc21 (single isomer, unassigned) [Example 8-S] | 0.704 µM | 96.1% | 0.3 mg/kg | 0.36 mg/kg | 0.3 mg/kg | 0.903 µM | 90.7%
CNC[C@@H]1OCC2(CC2)c2sccc21 (single isomer, unassigned) [Example 9-R] | – | – | 0.1 mg/kg | – | 10 mg/kg | – | –
CNC[C@H]1OCC2(CC2)c2sccc21 (single isomer, unassigned) [Example 9-S] | 0.795 µM | 95.8% | – | – | – | – | –
CNCC1OCC2(CCC2)c2ccsc21 (stereo not drawn) [Example 2, 1-(5′H,7′H-spiro[cyclobutane-1,4′-thieno[2,3c]pyran]-7′-yl)-N-methylmethylamine] | – | – | – | – | – | 0.257 µM | 108.9%
CNCC1OCC2(CC2)c2c(C)csc21 (stereo not drawn) [Example 7, 1-(3′-methyl-5′H,7′H-Spiro[cyclopropane-1,4′-thieno[2,3-c]pyran]-7′-yl)-N-methylmethylamine] | – | – | – | – | – | 0.394 µM | 93.4%
CNCC1OCC2(CC2)c2ccsc21 (stereo not drawn) [Example 8, 1-(5′H,7′H-Spiro[cyclopropane-1,4-thieno[2,3-c]pyran]-7′-yl)-N-methylmethylamine] | 1.63 µM | 96.6% | – | – | – | 1.54 µM | 91.6%
CNCC1OCC2(CC2)c2sccc21 (stereo not drawn) [Example 9, 1-(4′H,6′H-spiro[cyclopropane-1,7′-thieno[3,2-c]pyran]-4′-yl)-N-methylmethylamine] | 1.67 µM | 95.5% | – | – | – | 2.44 µM | 92.7%
[2H]C([2H])([2H])NCC1OCC2(CC2)c2ccsc21 (stereo not drawn) [Example 15, N-((5′H,7′H-Spiro[cyclopropane-1,4′-thieno[2,3-c]pyran]-7′-yl)methyl)methane-d3-amine] | 1.73 µM | 93.3% | – | – | – | 2.68 µM | 93.7%
CCNCC1OCC2(CC2)c2ccsc21 (stereo not drawn) [Example 16, N-((5′H,7′H-spiro[cyclopropane-1,4′-thieno[2,3-c]pyran]-7′-yl)methyl)ethylamine] | – | – | – | – | – | 1.38 µM | 115.6%
c1cc2c(s1)C(CN1CCC1)OCC21CC1 (stereo not drawn) [Example 23, 1-((5′H,7′H-Spiro[cyclopropane-1,4′-thieno[2,3-c]pyran]-7′-yl)methyl)azetidine] | – | – | – | – | – | 5.51 µM | 75.5%
[2H]C([2H])([2H])NCC1OCC2(CC2)c2sccc21 (stereo not drawn) [Example 32, N-((4′,6′-dihydrospiro[cyclopropane-1,7′-thieno[3,2-c]pyran]-4′-yl)methyl)methyl-D3-amine] | 1.32 µM | 97.7% | – | – | – | 1.88 µM | 80.5%
[2H]C([2H])([2H])NC[C@@H]1OCC2(CC2)c2sccc21 [Example 32-R, (R)—N-((4′,6′-dihydrospiro[cyclopropane-1,7′-thieno[3,2-c]pyran]-4′-yl)methyl)methyl-D3-amine] | – | – | – | – | – | 1.67 µM | 86.3%
[2H]C([2H])([2H])NC[C@H]1OCC2(CC2)c2sccc21 [Example 32-S, (S)—N-((4′,6′-dihydrospiro[cyclopropane-1,7′-thieno[3,2-c]pyran]-4′-yl)methyl)methyl-D3-amine] | 0.806 µM | 97.1% | – | – | – | – | –
